In patent US11161852B1 (Halia Therapeutics, Inc., priority 2020, dated 2021):
pIC50: −log10 of the molar value.

Tests used:
[1] = tested on: IL-1β release from THP-1 cells; experiment: IL-1β Release Assay (PMA-differentiated THP-1 cells, LPS + nigericin); type: cell-based; details: Homo sapiens, 250 ng/mL LPS, 20 μM nigericin
Protocol: Approximately 1.5 million THP-1 cells were plated in each well of a 6-well TC plate and incubated with 40 nM PMA in RPMI (10% FBS, 1% Penstrep) for 24 hours. The media was then removed and cells were rested in RPMI (10% FBS, 1% Penstrep) for 24 hours after which time the media was removed and cells were pre-treated for 2 hours with various concentrations of compounds of interest (typically serial 3-fold dilution in RPMI+5% FBS, concentrations ranging from 1 μM to 0.5 nM) in RPMI (5% FBS). The media was again removed and cells were incubated with 250 ng/mL LPS and compounds of interest (concentrations as above) in RMPI (5% FBS) for 2 hours. The media was removed for a last time and cells were incubated with 20 μM nigericin and compounds of interest (concentrations as above) in Opti-MEM for 30 minutes. Cell media was then collected and the amount of cleaved IL-1β was determined using a JESS instrument (Protein Simple) and standard protocols. Cleaved Il-1β antibody was obtained from Cell Signaling (catalogue #83186S) and was used at 1:20 dilution in antibody diluent 2. Protein Simple 1× anti-Rabbit HRP secondary antibody was used along with Protein Simple luminol and peroxide for chemiluminescent detection. Primary antibody incubation time was increased from 30 minutes to 60 minutes.

[2] = target: full-length recombinant human NEK7 (Homo sapiens (Human), UniProt Q8TDX7); experiment: NEK7 Enzymatic Assay ([33P]-ATP, casein substrate); type: biochemical
Protocol: Casein substrate (from bovine milk, hydrolyzed and partially dephosphorylated mixture of α, β and a caseins, obtained from Sigma Aldrich, catalogue #C4765, diluted in distilled water to a final concentration of 1 mg/mL) and full-length recombinant human NEK7 (expressed by baculovirus in Sf9 insect cells using a N-terminal GST tag, obtained from SignalChem, catalogue #N09-10G, 0.1 μg/μL) were mixed in assay buffer (20 mM Hepes pH 7.5, 10 mM MgCl2, 1 mM EGTA, 0.02% Brij35, 0.02 mg/ml BSA, 0.1 mM Na3VO4, 2 mM DTT, 1% DMSO). Compounds of interest (serial 3-fold dilution in DMSO from 10 μM to 0.5 nM) or vehicle (1% DMSO) were dispensed into the kinase reaction mixture by Acoustic technology (Echo550; nanoliter range). After incubation at room temperature for 20 minutes, the kinase reaction was initiated by addition of [^33P]-ATP (specific activity […]) and the mixture was incubated at room temperature for 2 hours. The reaction was then stopped by spotting the reaction mixture on strips of phosphocellulose P81 paper. Following washing, the radioactivity of the P81 paper was measured and kinase activity data were expressed as the percent remaining kinase activity in test samples compared to vehicle reactions. IC50 values and curve fits were obtained using Prism (GraphPad Software).

Sequence of full-length recombinant human NEK7 (Q8TDX7 whole entry): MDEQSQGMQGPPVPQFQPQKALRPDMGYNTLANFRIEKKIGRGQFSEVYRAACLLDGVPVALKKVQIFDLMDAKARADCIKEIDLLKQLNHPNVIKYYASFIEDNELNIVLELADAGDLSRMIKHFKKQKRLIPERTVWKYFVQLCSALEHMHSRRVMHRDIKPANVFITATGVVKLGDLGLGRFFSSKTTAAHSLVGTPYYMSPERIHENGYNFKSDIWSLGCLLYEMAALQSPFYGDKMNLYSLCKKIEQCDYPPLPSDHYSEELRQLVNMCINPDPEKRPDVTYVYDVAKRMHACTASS

| SMILES | pIC50 [1] | pIC50 [2] |
| --- | --- | --- |
| CC1(c2cc(NC(=O)Nc3ccc(-c4cn(C5CC5)c5ncnc(N)c45)cc3F)on2)CC1 [Example 17, 1-(4-(4-amino-7-cyclopropyl-7H-pyrrolo[2,3-d]pyrimidin-5-yl)-2-fluorophenyl)-3-(3-(1-methylcyclopropyl)isoxazol-5-yl)urea] | > 6.82 | > 6.82 |
| Cc1cc(-c2cn(C3CC3)c3ncnc(N)c23)ccc1NC(=O)Nc1cc(C2(C(F)(F)F)CC2)no1 [Example 38, 1-(4-(4-amino-7-cyclopropyl-7H-pyrrolo[2,3-d]pyrimidin-5-yl)-2-methylphenyl)-3-(3-(1-(trifluoromethyl)cyclopropyl)isoxazol-5-yl)urea] | 6.30 to 6.52 | 5.82 to 6.30 |
| CC(C)(C)c1cc(NC(=O)NC2CC=C(c3cn(C4CC4)c4ncnc(N)c34)CC2)on1 (centres unmarked) [Example 15, 1-(4-(4-amino-7-cyclopropyl-7H-pyrrolo[2,3-d]pyrimidin-5-yl)cyclohex-3-en-1-yl)-3-(3-(tert-butyl)isoxazol-5-yl)urea] | < 6.00 | < 5.82 |
| CC(C)(C#N)c1cc(NC(=O)Nc2ccc(-c3cn(C4CC4)c4ncnc(N)c34)cc2F)on1 [Example 35, 1-(4-(4-amino-7-cyclopropyl-7H-pyrrolo[2,3-d]pyrimidin-5-yl)-2-fluorophenyl)-3-(3-(2-cyanopropan-2-yl)isoxazol-5-yl)urea] | 6.52 to 6.82 | 6.52 to 6.82 |
| Nc1ncnc2c1c(-c1ccc(NC(=O)Nc3cc(C4(C(F)(F)F)CC4)no3)c(F)c1)cn2C1CC(O)C1 (centres unmarked) [Example 39, 1-(4-(4-amino-7-(3-hydroxycyclobutyl)-7H-pyrrolo[2,3-d]pyrimidin-5-yl)-2-fluorophenyl)-3-(3-(1-(trifluoromethyl)cyclopropyl)isoxazol-5-yl)urea] | > 6.82 | > 6.82 |
| CC(C)(F)c1cc(NC(=O)Nc2ccc(-c3cn(C4CC4)c4ncnc(N)c34)cc2F)on1 [Example 9, 1-(4-(4-amino-7-cyclopropyl-7H-pyrrolo[2,3-d]pyrimidin-5-yl)-2-fluorophenyl)-3-(3-(2-fluoropropan-2-yl)isoxazol-5-yl)urea] | 6.52 to 6.82 | > 6.82 |
| Cc1cc(NC(=O)Nc2ccc(-c3cn(C4CC4)c4ncnc(N)c34)cc2F)no1 [Example 8, 1-(4-(4-amino-7-cyclopropyl-7H-pyrrolo[2,3-d]pyrimidin-5-yl)-2-fluorophenyl)-3-(5-methylisoxazol-3-yl)urea] |  | 5.82 to 6.30 |
| Nc1ncnc2c1c(-c1ccc(NC(=O)Nc3cc(C4(C(F)(F)F)CC4)no3)cn1)cn2C1CC1 [Example 59, 1-(6-(4-amino-7-cyclopropyl-7H-pyrrolo[2,3-d]pyrimidin-5-yl)pyridin-3-yl)-3-(3-(1-(trifluoromethyl)cyclopropyl)isoxazol-5-yl)urea] |  | < 5.82 |
| CCC(CC)c1cc(NC(=O)Nc2ccc(-c3cn(C4CC4)c4ncnc(N)c34)cc2F)on1 [Example 31, 1-(4-(4-amino-7-cyclopropyl-7H-pyrrolo[2,3-d]pyrimidin-5-yl)-2-fluorophenyl)-3-(3-(pentan-3-yl)isoxazol-5-yl)urea] |  | 6.30 to 6.52 |
| Nc1ncnc2c1c(-c1ccc(NC(=O)Nc3cc(C4(C(F)(F)F)CC4)no3)c(F)c1)cn2-c1cccnc1 [Example 24, 1-(4-(4-amino-7-(pyridin-3-yl)-7H-pyrrolo[2,3-d]pyrimidin-5-yl)-2-fluorophenyl)-3-(3-(1-(trifluoromethyl)cyclopropyl)isoxazol-5-yl)urea] |  | 5.82 to 6.30 |
| Nc1ncnc2c1c(-c1cnc(NC(=O)Nc3cc(C4(C(F)(F)F)CC4)no3)nc1)cn2C1CC1 [Example 48, 1-(5-(4-amino-7-cyclopropyl-7H-pyrrolo[2,3-d]pyrimidin-5-yl)pyrimidin-2-yl)-3-(3-(1-(trifluoromethyl)cyclopropyl)isoxazol-5-yl)urea] |  | < 5.82 |
| CC(C)(C)c1csc(NC(=O)Nc2ccc(-c3cn(C4CC4)c4ncnc(N)c34)cc2F)n1 [Example 18, 1-(4-(4-amino-7-cyclopropyl-7H-pyrrolo[2,3-d]pyrimidin-5-yl)-2-fluorophenyl)-3-(4-(tert-butyl)thiazol-2-yl)urea] |  | < 5.82 |
| CN1CCC(n2cc(-c3ccc(NC(=O)Nc4cc(C5(C(F)(F)F)CC5)no4)c(F)c3)c3c(N)ncnc32)C1 (centres unmarked) [Example 56, 1-(4-(4-amino-7-(1-methylpyrrolidin-3-yl)-7H-pyrrolo[2,3-d]pyrimidin-5-yl)-2-fluorophenyl)-3-(3-(1-(trifluoromethyl)cyclopropyl)isoxazol-5-yl)urea] |  | 6.30 to 6.52 |
| Nc1ncnc2c1c(-c1ccc(NC(=O)Nc3cc(C4(C(F)(F)F)CC4)no3)c(F)c1)cn2-c1ccncc1 [Example 25] |  | 5.82 to 6.30 |
| Nc1ncnc2c1c(-c1cc(F)c(NC(=O)Nc3cc(C4(C(F)(F)F)CC4)no3)c(F)c1)cn2C1CC1 [Example 41, 1-(4-(4-amino-7-cyclopropyl-7H-pyrrolo[2,3-d]pyrimidin-5-yl)-2,6-difluorophenyl)-3-(3-(1-(trifluoromethyl)cyclopropyl)isoxazol-5-yl)urea] |  | < 5.82 |
| CC(C)(C)c1cc(NC(=O)Nc2ccc(-c3cn(C4CC4)c4ncnc(N)c34)cc2F)no1 [Example 4, 1-(4-(4-amino-7-cyclopropyl-7H-pyrrolo[2,3-d]pyrimidin-5-yl)-2-fluorophenyl)-3-(5-(tert-butyl)isoxazol-3-yl)urea] |  | > 6.82 |
| CC(C)(C)c1cc(NC(=O)Nc2ccc(-c3cn(C4COC4)c4ncnc(N)c34)cc2)on1 [Example 1, 1-(4-(4-amino-7-(oxetan-3-yl)-7H-pyrrolo[2,3-d]pyrimidin-5-yl)phenyl)-3-(3-(tert-butyl)isoxazol-5-yl)urea] |  | 6.52 to 6.82 |
| Nc1ncnc2c1c(-c1ccc(NC(=O)Nc3cc(C4(C(F)(F)F)CC4)on3)c(F)c1)cn2CCO [Example 61, 1-(4-(4-amino-7-(2-hydroxyethyl)-7H-pyrrolo[2,3-d]pyrimidin-5-yl)-2-fluorophenyl)-3-(5-(1-(trifluoromethyl)cyclopropyl)isoxazol-3-yl)urea] |  | > 6.82 |
| CC(C)(C)c1nnc(NC(=O)Nc2ccc(-c3cn(C4CC4)c4ncnc(N)c34)cc2F)s1 [Example 19, 1-(4-(4-amino-7-cyclopropyl-7H-pyrrolo[2,3-d]pyrimidin-5-yl)-2-fluorophenyl)-3-(5-(tert-butyl)-1,3,4-thiadiazol-2-yl)urea] |  | 6.30 to 6.52 |
| Nc1ncnc2c1c(-c1ccc(NC(=O)Nc3cc(CO)no3)c(F)c1)cn2C1CC1 [Example 36, 1-(4-(4-amino-7-cyclopropyl-7H-pyrrolo[2,3-d]pyrimidin-5-yl)-2-fluorophenyl)-3-(3-(hydroxymethyl)isoxazol-5-yl)urea] |  | 5.82 to 6.30 |
| Nc1ncnc2c1c(-c1cnc(NC(=O)Nc3cc(C4(C(F)(F)F)CC4)no3)c(F)c1)cn2C1CC1 [Example 44] |  | 5.82 to 6.30 |
| Nc1ncnc2c1c(-c1ccc(NC(=O)Nc3cc(C4(C(F)(F)F)CC4)no3)cc1F)cn2C1CC1 [Example 11, 1-(4-(4-amino-7-cyclopropyl-7H-pyrrolo[2,3-d]pyrimidin-5-yl)-3-fluorophenyl)-3-(3-(1-(trifluoromethyl)cyclopropyl)isoxazol-5-yl)urea] |  | 6.30 to 6.52 |
| CC(C)(C)c1cc(NC(=O)Nc2ccc(-c3cn(C4CC4)c4ncnc(N)c34)cc2)on1 [Example 13, 1-(4-(4-amino-7-cyclopropyl-7H-pyrrolo[2,3-d]pyrimidin-5-yl)phenyl)-3-(3-(tert-butyl)isoxazol-5-yl)urea] |  | 6.30 to 6.52 |
| Nc1ncnc2c1c(-c1ccc(NC(=O)Nc3cc(C(F)(F)F)no3)c(F)c1)cn2C1CC1 [Example 28, 1-(4-(4-amino-7-cyclopropyl-7H-pyrrolo[2,3-d]pyrimidin-5-yl)-2-fluorophenyl)-3-(3-(trifluoromethyl)isoxazol-5-yl)urea] |  | 6.52 to 6.82 |
| Nc1nccc2c1c(-c1ccc(NC(=O)Nc3cc(C4(C(F)(F)F)CC4)no3)c(F)c1)cn2C1CC1 [Example 62, 1-(4-(4-amino-1-cyclopropyl-1H-pyrrolo[3,2-c]pyridin-3-yl)-2-fluorophenyl)-3-(3-(1-(trifluoromethyl)cyclopropyl)isoxazol-5-yl)urea] |  | < 5.82 |
| Nc1ncnc2c1c(-c1ccc(NC(=O)Nc3cc(C4(C(F)(F)F)CCC4)no3)c(F)c1)cn2C1CC1 [Example 45, 1-(4-(4-amino-7-cyclopropyl-7H-pyrrolo[2,3-d]pyrimidin-5-yl)-2-fluorophenyl)-3-(3-(1-(trifluoromethyl)cyclobutyl)isoxazol-5-yl)urea] |  | 6.52 to 6.82 |
